Assay results from ChEMBL document CHEMBL1153271, “3,4-Diamino-1,2,5-thiadiazole as potent and selective CXCR2 antagonists” (Bioorg Med Chem Lett, 2009).

Tests used:
[1] = target: T1, C-X-C chemokine receptor type 2 (Homo sapiens, UniProt P25025); assay: Displacement of IL8 from CXCR2 receptor
T1 sequence (P25025 whole entry): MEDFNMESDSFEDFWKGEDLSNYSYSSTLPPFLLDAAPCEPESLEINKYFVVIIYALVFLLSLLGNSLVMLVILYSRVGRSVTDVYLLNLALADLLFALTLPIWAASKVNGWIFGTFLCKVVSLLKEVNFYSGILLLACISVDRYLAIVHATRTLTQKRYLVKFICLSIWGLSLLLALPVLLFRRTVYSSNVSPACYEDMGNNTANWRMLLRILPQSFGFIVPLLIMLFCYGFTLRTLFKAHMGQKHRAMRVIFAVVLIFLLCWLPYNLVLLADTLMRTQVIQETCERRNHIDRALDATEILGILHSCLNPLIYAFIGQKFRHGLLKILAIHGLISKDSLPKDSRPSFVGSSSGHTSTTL

[2] = target: T2, C-X-C chemokine receptor type 1 (Homo sapiens, UniProt P25024); assay: Displacement of IL8 from CXCR1 receptor
T2 sequence (P25024 whole entry): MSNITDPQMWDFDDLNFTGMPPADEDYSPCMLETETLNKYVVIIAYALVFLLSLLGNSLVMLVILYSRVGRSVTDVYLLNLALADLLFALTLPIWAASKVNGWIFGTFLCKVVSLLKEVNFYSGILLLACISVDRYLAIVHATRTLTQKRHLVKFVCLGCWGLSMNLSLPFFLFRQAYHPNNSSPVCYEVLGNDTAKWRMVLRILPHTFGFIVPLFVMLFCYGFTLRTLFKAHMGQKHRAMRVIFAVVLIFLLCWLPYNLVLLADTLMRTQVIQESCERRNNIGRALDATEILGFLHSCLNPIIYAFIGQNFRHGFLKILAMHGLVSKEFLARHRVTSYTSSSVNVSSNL

[3] = target: T1, C-X-C chemokine receptor type 2; assay: Displacement of [125I]CXCL1 from CXCR2 receptor in human PMN assessed as myeloperoxidase release
[4] = target: T2, C-X-C chemokine receptor type 1; assay: Displacement of [125I]CXCL8 from CXCR1 receptor in human PMN assessed as myeloperoxidase release

Row | SMILES | Ki [1] | Ki [2] | IC50 [3] | IC50 [4]
1 | CC[C@@H](Nc1nsnc1Nc1cccc(C(=O)N(C)C)c1O)c1cc(F)cc(F)c1 | 4100 nM |  |  | 
2 | CC[C@@H](Nc1nsnc1Nc1cccc(C(=O)N(C)C)c1O)c1cc(C)co1 | 2280 nM |  |  | 
3 | CN(C)C(=O)c1cccc(Nc2nsnc2N[C@@H](c2ccc3c(c2)OCO3)C(C)(C)C)c1O | 330 nM | 52 nM |  | 
4 | CC[C@@H](Nc1nsnc1Nc1cccc(C(=O)N(C)C)c1O)c1ccccc1 | 5110 nM |  |  | 
5 | CC[C@@H](Nc1nsnc1Nc1cccc(C(=O)N(C)C)c1O)c1ccc(C)o1 | 3000 nM |  |  | 
6 | CC(C)c1coc([C@H](Nc2nsnc2Nc2cccc(C(=O)N(C)CCC#N)c2O)C(C)(C)C)c1 | 79 nM |  |  | 
7 | CN(C)C(=O)c1cccc(Nc2nsnc2N[C@@H](c2cc3ccccc3o2)C(C)(C)C)c1O | 2360 nM |  |  | 
8 | CN(C)C(=O)c1cccc(Nc2nsnc2N[C@@H](c2ccccc2)C2CC2)c1O | 2030 nM |  |  | 
9 | CN(C)C(=O)c1cccc(Nc2nsnc2N[C@@H](c2ccco2)C(C)(C)C)c1O | 381 nM |  |  | 
10 | C[C@H](Nc1nsnc1Nc1cccc(C(=O)N(C)C)c1O)C(C)(C)C | 10000 nM |  |  | 
11 | Cc1ccc([C@H](Nc2nsnc2Nc2ccc(C(F)(F)F)c(C(=O)N(C)C)c2O)C(C)(C)C)o1 | 168 nM | 38 nM |  | 
12 | Cc1ccc([C@H](Nc2nsnc2Nc2cccc(C(=O)N3CCOCC3)c2O)C(C)(C)C)o1 | 1270 nM |  |  | 
13 | Cc1ccc([C@H](Nc2nsnc2Nc2cccc(C(=O)N(C)C)c2O)C(C)(C)C)o1 | 91 nM |  | 21 nM | 
14 | CN(C)C(=O)c1cccc(Nc2nsnc2N[C@@H](c2cccc(F)c2)C(C)(C)C)c1O | 1300 nM | 78 nM |  | 
15 | CN(C)C(=O)c1cccc(Nc2nsnc2N[C@@H](c2ccc3c(c2)CCC3)C(C)(C)C)c1O | 10000 nM |  |  | 
16 | Cc1ccc([C@H](Nc2nsnc2Nc2cccc(C(=O)N(C)CCC#N)c2O)C(C)(C)C)o1 | 114 nM | 13 nM |  | 
17 | Cc1ccc([C@H](Nc2nsnc2Nc2cccc(C(=O)N(C)C)c2O)C(C)C)o1 | 2400 nM | 15 nM | 36 nM | 3.91 µM
18 | CC[C@@H](Nc1nsnc1Nc1ccc(C(F)(F)F)c(C(=O)N(C)C)c1O)c1ccc(C)o1 | 749 nM |  |  | 
19 | Cc1ccc([C@H](Nc2nsnc2Nc2cccc(C(=O)N(C)C)c2O)C(F)(F)F)o1 | 10000 nM | 53 nM |  | 
20 | CN(C)C(=O)c1cccc(Nc2nsnc2NC(c2ccccc2)C(F)(F)F)c1O (stereo not drawn) | 4300 nM | 36 nM |  | 
21 | CN(CCC#N)C(=O)c1cccc(Nc2nsnc2N[C@@H](c2ccco2)C(C)(C)C)c1O | 44 nM |  |  | 
22 | CN(C)C(=O)c1cccc(Nc2nsnc2N[C@@H](c2ccc3c(c2)OCCO3)C(C)(C)C)c1O | 10000 nM |  |  | 
23 | Cc1ccc([C@H](Nc2nsnc2Nc2cccc(C(=O)N(C)C)c2O)C(C)C)s1 | 1300 nM |  |  | 
